From ChEMBL document CHEMBL3886974, “Imidazopyrazines” (2016)

Molecular target: T1, Dual specificity protein kinase TTK (Homo sapiens, UniProt P33981)
T1 sequence (P33981 whole entry): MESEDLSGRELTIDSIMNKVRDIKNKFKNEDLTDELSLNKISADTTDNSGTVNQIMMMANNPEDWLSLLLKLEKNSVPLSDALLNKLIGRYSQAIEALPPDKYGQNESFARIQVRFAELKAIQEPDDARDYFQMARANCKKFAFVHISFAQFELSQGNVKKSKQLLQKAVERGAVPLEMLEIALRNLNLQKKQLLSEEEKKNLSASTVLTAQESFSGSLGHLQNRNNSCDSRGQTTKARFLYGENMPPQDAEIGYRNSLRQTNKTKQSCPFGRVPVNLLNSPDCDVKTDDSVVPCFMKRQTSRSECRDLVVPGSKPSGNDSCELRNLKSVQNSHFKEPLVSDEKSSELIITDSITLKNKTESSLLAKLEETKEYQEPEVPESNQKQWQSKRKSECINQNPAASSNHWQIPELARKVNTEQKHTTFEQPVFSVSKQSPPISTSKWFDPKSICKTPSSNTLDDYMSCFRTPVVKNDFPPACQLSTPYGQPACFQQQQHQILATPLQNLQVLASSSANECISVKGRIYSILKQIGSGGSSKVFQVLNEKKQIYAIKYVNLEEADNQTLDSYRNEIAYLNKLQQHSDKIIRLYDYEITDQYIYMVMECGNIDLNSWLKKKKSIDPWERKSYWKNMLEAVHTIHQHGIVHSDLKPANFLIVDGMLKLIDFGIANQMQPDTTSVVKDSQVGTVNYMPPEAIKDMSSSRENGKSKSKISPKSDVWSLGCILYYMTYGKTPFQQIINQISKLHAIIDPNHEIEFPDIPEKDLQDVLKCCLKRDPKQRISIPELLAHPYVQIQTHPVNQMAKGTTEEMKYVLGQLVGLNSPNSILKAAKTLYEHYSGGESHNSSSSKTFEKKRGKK
Assay: Kinase Assay: For the assay 50 nl of a 100-fold concentrated solution of the test compound in DMSO was pipetted into a black low volume 384 well microtiter plate (Greiner Bio-One, Frickenhausen, Germany), 2 ul of a solution of Mps-1 in assay buffer [0.1 mM sodium-ortho-vanadate, 10 mM MgCl2, 2 mM DTT, 25 mM Hepes pH 7.7, 0.05% BSA, 0.001% Pluronic F-127] were added and the mixture was incubated for 15 min at 22° C. to allow pre-binding of the test compounds to Mps-1 before the start of the kinase reaction. Then the kinase reaction was started by the addition of 3 ul of a solution of 16.7 adenosine-tri-phosphate (ATP, 16.7 uM=>final conc. in the 5 ul assay volume is 10 uM) and peptide substrate (1.67 uM=>final conc. in the 5 ul assay volume is 1 uM) in assay buffer and the resulting mixture was incubated for a reaction time of 60 min at 22° C. The concentration of Mps-1 in the assay was adjusted to the activity of the enzyme lot and was chosen appropriate to have the assay in the linear range, typical enzyme concentrations were in the range of about 1 nM (final conc. in the 5 ul assay volume). […]

IC50	SMILES
25.7 nM	CSc1nc(-c2ccccc2)cn2c(-c3ccc(C(=O)NC4CC4)cc3)cnc12
151 nM	CSc1nc(C#CCO)cn2c(-c3ccc(-c4cnc(C5CC5)[nH]4)cc3)cnc12
